Experimental data from patent publication US4293549A, “Quinolinyl guanidines having antiinflammatory, analgesic or antipyretic activity” (Leo Pharmaceutical Products Ltd. A/S (Lovens Kemiske Fabrik, priority 1977, dated 1981).

Assays:
pain threshold = experiment: Analgetic effect in rats (Randall and Selitto); format: in vivo; settings: 2 hrs after administration
[1] = tested on: adjuvant induced arthritis; experiment: Inhibition of adjuvant induced arthritis in rats; format: in vivo
From the text: The compounds were orally administered suspended in 0.5% carboxymethylcellulose, daily, from the day of adjuvant injection to 28 days later.

stomachs = experiment: Gastro ulcerogenic activity in rats; format: in vivo; settings: 24 hrs; for Mean severity: scale 0=no lesion to +4=perforation
Protocol: Rats fasted for 9 hrs before treatment were given different doses of the compounds. 24 hrs later the animals were killed, the stomachs were removed, opened along the lesser curvature and gross examined for the presence of lesions and their severity. The severity was assessed according to an arbitrary scale from 0=no lesion to +4=perforation.

[2] = Acute toxicity in mice after oral administration; settings: mouse, in vivo, p.os, mortality assessed eight days after administration, read-out: LD50 (with confidence limits)
Protocol: The acute toxicity was determined in mice after oral administration. The mortality was assessed eight days after the administration and the LD50 (dose causing the death of 50% of the animals treated) was calculated according to the statistical method of Litchfield and Wilcoxon (J.Pharmacol.Exp.Ther. 96, 99, (1949)).

[3] = tested on: carrageenin induced edema; experiment: Inhibition of carrageenin edema in rats; format: in vivo; settings: 1 hr before carrageenin
Protocol: Inhibitory activity toward carrageenin induced edema was assessed in rats using the technique of Winter C. A., Risley E. A., Nuss C. […] The compounds were orally administered suspended in 0.5% carboxymethylcellulose to 18 hrs fasting animals, 1 hr before the injection of carrageenin.

prostaglandin synthetase = molecular target: T1, prostaglandin synthetase (Bos taurus, UniProt O62664); experiment: Inhibition of prostaglandin synthetase (bovine seminal vesicle homogenate); format: biochemical; settings: lyophilized high speed precipitate of bovine seminal vesicle homogenate
T1 construct: lyophilized high speed precipitate of bovine seminal vesicle homogenate as enzyme; from tissue; host or cells: bovine seminal vesicle homogenate, lyophilized high speed precipitate
T1 sequence (O62664 25-600): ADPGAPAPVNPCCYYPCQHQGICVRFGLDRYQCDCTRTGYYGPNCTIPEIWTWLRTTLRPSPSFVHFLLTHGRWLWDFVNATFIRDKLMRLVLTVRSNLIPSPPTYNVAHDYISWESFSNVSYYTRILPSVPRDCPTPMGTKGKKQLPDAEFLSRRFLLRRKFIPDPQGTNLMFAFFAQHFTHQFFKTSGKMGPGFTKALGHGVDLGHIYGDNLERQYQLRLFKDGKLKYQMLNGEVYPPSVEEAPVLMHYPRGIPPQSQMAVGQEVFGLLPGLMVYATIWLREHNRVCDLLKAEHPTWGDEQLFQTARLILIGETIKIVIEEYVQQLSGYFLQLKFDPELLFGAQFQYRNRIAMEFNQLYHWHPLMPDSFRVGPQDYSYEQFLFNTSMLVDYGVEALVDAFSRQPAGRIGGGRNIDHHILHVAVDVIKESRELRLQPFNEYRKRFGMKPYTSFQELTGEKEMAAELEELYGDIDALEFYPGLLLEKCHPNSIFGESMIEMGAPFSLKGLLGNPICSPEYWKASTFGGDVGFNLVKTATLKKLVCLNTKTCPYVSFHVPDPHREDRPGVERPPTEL

[4] = Antipyretic effect in rats; format: in vivo; settings: over 180 min
Protocol: The compounds were orally administered and the antipyretic index evaluated over 180 min. of the experiment.

With `COc1ccc2c(c1)c(CC(=O)O)c(C)n2C(=O)c1ccc(Cl)cc1` [Indomethacin, reference compound] the “Increase of pain threshold” value (pain threshold; oral dose 1 mg/kg) was 19 mmHg, the “Increase of pain threshold” value (pain threshold; oral dose 3 mg/kg) was 34 mmHg and the “% Inhibition of the swelling, 18th day, primary” value (“% Inhibition … 18th day, primary” below) ([1]; daily oral dose 0.3 mg/kg) was 20.3%. For the same compound, the “% Inhibition of the swelling, 18th day, secondary” value (from here on “% Inhibition … 18th day, secondary”) ([1]; daily oral dose 0.3 mg/kg) was 13.5%, the “% Inhibition of the swelling, 28th day, primary” value (“% Inhibition … 28th day, primary” for short) ([1]; daily oral dose 0.3 mg/kg) was 25.9% and the “% Inhibition of the swelling, 28th day, secondary” value (shortened to “% Inhibition … 28th day, secondary”) ([1]; daily oral dose 0.3 mg/kg) was 29.7%. For the same compound, the “% Inhibition … 18th day, primary” value ([1]; daily oral dose 1 mg/kg) was 62.4%, the “% Inhibition … 18th day, secondary” value ([1]; daily oral dose 1 mg/kg) was 66.2% and the “% Inhibition … 28th day, primary” value ([1]; daily oral dose 1 mg/kg) was 80.5%. The “% Inhibition … 28th day, secondary” value ([1]; daily oral dose 1 mg/kg) was 76.8%, the “% with lesions” value (stomachs; oral dose 5 mg/kg) was 20% and the Mean severity (stomachs; oral dose 5 mg/kg) was 1.3. For the same compound, the “% with lesions” value (stomachs; oral dose 10 mg/kg) was 70%, the Mean severity (stomachs; oral dose 10 mg/kg) was 2.8 and the LD50 at 192 h [2] was 23 mg/kg. The “% Inhibition 3 hrs after carrageenin” value ([3]; oral dose 0.5 mg/kg) was 34%, the “% Inhibition 3 hrs after carrageenin” value ([3]; oral dose 1 mg/kg) was 42% and the “% Inhibition 3 hrs after carrageenin” value ([3]; oral dose 10 mg/kg) was 65%.

In the case of `Cc1cc(/N=C(\Nc2nccs2)NC2CCCCC2)c2ccccc2n1` [SR 1368, N-Cyclohexyl-N"-4-(2-methylquinolyl)-N'-2-thiazolylguanidine], the IC50 (prostaglandin synthetase) is reported as 2460 nM, the “Increase of pain threshold” value (pain threshold; oral dose 10 mg/kg) is reported as 12 mmHg and the “Increase of pain threshold” value (pain threshold; oral dose 30 mg/kg) is reported as 31 mmHg. For the same compound, the “Increase of pain threshold” value (pain threshold; oral dose 90 mg/kg) was 68 mmHg, the “% Inhibition … 18th day, primary” value ([1]; daily oral dose 5 mg/kg) was 23.5% and the “% Inhibition … 18th day, secondary” value ([1]; daily oral dose 5 mg/kg) was 14.9%. The “% Inhibition … 28th day, primary” value ([1]; daily oral dose 5 mg/kg) was 21.4%, the “% Inhibition … 28th day, secondary” value ([1]; daily oral dose 5 mg/kg) was 32.1% and the “% Inhibition … 18th day, primary” value ([1]; daily oral dose 10 mg/kg) was 29.2%. The “% Inhibition … 18th day, secondary” value ([1]; daily oral dose 10 mg/kg) was 54.4%, the “% Inhibition … 28th day, primary” value ([1]; daily oral dose 10 mg/kg) was 42.7% and the “% Inhibition … 28th day, secondary” value ([1]; daily oral dose 10 mg/kg) was 68.7%. For the same compound, the “% Inhibition … 18th day, primary” value ([1]; daily oral dose 30 mg/kg) was 44.2%, the “% Inhibition … 18th day, secondary” value ([1]; daily oral dose 30 mg/kg) was 53.2% and the “% Inhibition … 28th day, primary” value ([1]; daily oral dose 30 mg/kg) was 69.4%. For the same compound, the “% Inhibition … 28th day, secondary” value ([1]; daily oral dose 30 mg/kg) was 69.2%, the “% Inhibition … 18th day, primary” value ([1]; daily oral dose 60 mg/kg) was 51.6% and the “% Inhibition … 18th day, secondary” value ([1]; daily oral dose 60 mg/kg) was 73.4%. For the same compound, the “% Inhibition … 28th day, primary” value ([1]; daily oral dose 60 mg/kg) was 74.2%, the “% Inhibition … 28th day, secondary” value ([1]; daily oral dose 60 mg/kg) was 82.6% and the “% with lesions” value (stomachs; oral dose 25 mg/kg) was 0%. For the same compound, the Mean severity (stomachs; oral dose 25 mg/kg) was 0, the “% with lesions” value (stomachs; oral dose 50 mg/kg) was 20% and the Mean severity (stomachs; oral dose 50 mg/kg) was 0.9. The “% with lesions” value (stomachs; oral dose 100 mg/kg) was 40%, the Mean severity (stomachs; oral dose 100 mg/kg) was 1.7 and the LD50 at 192 h [2] was over 1000 mg/kg. The “% Inhibition 3 hrs after carrageenin” value ([3]; oral dose 25 mg/kg) was 40%, the “% Inhibition 3 hrs after carrageenin” value ([3]; oral dose 50 mg/kg) was 62% and the “% Inhibition 3 hrs after carrageenin” value ([3]; oral dose 100 mg/kg) was 71%. For the same compound, the Antipyretic index ([4]; oral dose 25 mg/kg) was 2.2 and the Antipyretic index ([4]; oral dose 50 mg/kg) was 5.6.
